We go through two molecules from US6492530B1, “Amorphous form of cell cycle inhibitor having improved solubility and bioavailability” (Hoffmann-La Roche Inc., priority 2000, dated 2002).

Data set [1] in a line: Stability of the amorphous form under accelerated storage (powder X-ray diffraction). In kind it is physicochemical. Particulars: 40° C./75% RH, closed glass vial for 6 months, independent of form stabilizers; FIG. 5.
Data set [2] is described as follows: Bioavailability / pharmacokinetics in beagle dogs after single oral dose. In kind it is in vivo. How it is done:
Additionally, preparations containing crystalline compound of formula I (Examples IIIB and IIIC) and amorphous compound of formula I (Example IIA) were evaluated for bioavailability in beagle dogs with body weight of approximately 10 kg. Each dog was given a formulation containing 90 mg of compound of formula I. Blood samples were collected from each dog prior to dosing (0 h) and at 0.5, 1, 2, 4, 6, 8, 12, 24, 36 and 48 hours after dosing. EDTA was used as an anticoagulant. Each plasma sample was separated after cold centrifugation and frozen in an amber vial at a minimum of −60° C. before analysis. Compound of formula I was extracted from plasma and the plasma concentration of compound of formula I was determined using a positive ion TurbolonSpray LC-MS/MS assay[HPLC using HP1100 LC system, Hewleft-Packard, Inc. (Agilent Technologies, Wilmington, Del.) and Mass Spectrometer using PE-Sciex API-3+ (Perkin-Elmer Instruments, Wilton, Conn.), Ionization mode: Turbulonspray, 500C, positive ion] The calibration range was 1 to 1,000 ng/mL using a 100-μL plasma sample. […]

Data set [3] in a line: Two-stage dissolution method (water, then 6% SLS in phosphate buffer pH 6.8). In kind it is physicochemical. The following applies: FIG. 6 dissolution profile, Example IIA versus Example IIIA. The method, then:
The formulation of Example IIIA containing crystalline compound of formula I (Example IIIA) and the formulation of (Example IIA) containing amorphous compound of formula I were evaluated for dissolution by a two-stage (two dissolution media) dissolution method. At Stage I, 300 mL of deionized water at 37°±0.5° C. using paddles at 75 rpm was used. At Stage II, 600 mL of 6% w/v Sodium Lauryl Sulfate in 0.015M Phosphate Buffer, pH 6.8 equilibrated at 37°±0.5° C., was carefully added into the dissolution vessel 25 minutes after the Stage I dissolution was initiated. Sample aliquots were taken at different time intervals and analyzed by UV spectrophotometry.

The next data set in a line: physchem. The following applies: aqueous media at physiological pHs, aqueous buffer. The source says:
A crystalline form of the compound of formula I is known. See, e.g., U.S. Pat. No. Re. 36,736. […] (Id. column 22, lines 5-6). […] See, e.g. U.S. Pat. No. 6,048,887 and EP 0 988,863.

“Also recorded” adds a separate entry of the source. A value given as a limit tells only on which side of the number the result lay.

As for `Cn1cc(C2=C(c3cn(C)c4cc([N+](=O)[O-])ccc34)C(=O)NC2=O)c2ccccc21` [amorphous compound of formula I, 3-(1-methyl-3-indolyl)-4-(1-methyl-6-nitro-3-indolyl)-1H-pyrrole-2,5,-dione], the “retention of amorphous form on storage” value in data set [1] is “maintained its amorphous properties; also recorded: remained in its amorphous form”. In data set [2] (amorphous versus crystalline form), the “bioavailability as compared to the crystalline form” value was “approximately 15 fold”. Further, in data set [3], the “solubility versus crystalline form” value was “much more soluble”.

As to `Cn1cc(C2=C(c3cn(C)c4cc([N+](=O)[O-])ccc34)C(=O)NC2=O)c2ccccc21` [crystalline compound of formula I, 3-(1-methyl-3-indolyl)-4-(1-methyl-6-nitro-3-indolyl)-1H-pyrrole-2,5,-dione, reference compound], the solubility (as a rule, the dissolved amount per volume that the medium holds) in “physchem” was < 10 µg/mL. Besides, in data set [2] (dog, in vivo, in dogs, previously known crystalline form (background statement)), the bioavailability (as a rule, the share of a dose that reaches the circulation, judged against a reference dose that is usually intravenous) was < 5%.
